{
  "source": "PubChem BioAssay AID1963827",
  "about": "(Molecular Pharmacology Branch, DTP, NCI, 2024)",
  "system": "994946-033-R-J1-PDC complex spheroid viability",
  "experiment": "Anticancer human tumor 994946-033-R-J1-PDC patient-derived melanoma cell line growth inhibition [POLQ]",
  "conditions": "for viability, T/C: stronger effect = lower value",
  "description": "Multicellular complex tumor spheroid response to Polymerase (POL) inhibitors (novobiocin, ART-558, RP6685) in combination with a variety of drugs and investigational agents in selected tumor cell lines\nThe POL inhibitors (novobiocin, ART-558, and RP6685) were evaluated both individually and in combination with standard of care and investigational anticancer small molecules within a complex spheroid model of solid tumors. . Complex spheroids include a stromal component modeled by human endothelial cells (HUVEC) and fibroblasts modeled by human mesenchymal stem cells (MSCs). The concentration ranges selected for each drug and investigational agent were based upon clinically achievable concentrations if the clinical Cmax of the agent was known.\nCompounds. The drugs and investigational agents: novobiocin (NSC847541), ART-558 (NSC835418), RP-6685 (NSC848927), peposertib (NSC802822), ceralasertib (NSC780249), elimusertib (NSC800525), camonsertib (NSC841442), AZD-1390 (NSC803789), olaparib (NSC753686), talazoparib (NSC767125), rucaparib (NSC756644), sotorasib (NSC818433), MRTX-1133 (NSC836407), SN-38 (NSC673596), topotecan (NSC609699), epotoside (NSC141540), doxorubicin (NSC123127), gemcitabine (NSC613327), 5-fluorouracil (NSC19893), paclitaxel (NSC125973), vemurafenib (NSC761431), MSA-2 (NSC828583), SN-011 (NSC837082), adavosertib (NSC754352), prexasertib (NSC758257), carboplatin (NSC241240) and oxaliplatin (NSC266046), were obtained from the National Cancer Institute (NCI) Developmental Therapeutics Program Chemical Repository (21). The FDA-approved anticancer drug set is available from the Developmental Therapeutics Program at https://dtp.cancer.gov/organization/dscb/obtaining/. […] The stock solutions were prepared in dimethyl sulfoxide (DMSO, Sigma-Aldrich, St. Louis, MO, cat. D2650), except for the platinum compounds which were prepared in saline (Quality Biological, Gaithersburg, MD, cat. 114-055-101), at 800-fold the tested concentration and stored at -70 degrees C prior to their use. All drugs and investigational agents were tested over a range starting from a high concentration at or near the clinical Cmax and decreasing in half-log increments. If the clinical Cmax for an agent had not been determined, the highest concentration tested was 10 microM, except for SN-38, which was tested at a high concentration of 1 microM.\nCell Culture. All cells were maintained in an incubator at 37 degrees C and 5% CO2 with 95% humidity. The PDC lines were cultured according to standard operating procedures established by the NCI PDMR (https://pdmr.cancer.gov). Table 3 of the manuscript, lists the cell lines along with the number of the three cell types plated to form the mct-spheroids and media for tumor cell growth. After thawing, all PDC lines, except 997537-175-T-J1-PDC and 415267-285-R-J2-PDC, were cultured in Matrigel-coated flasks prepared with a working solution of 1X Ham's F-12 nutrient mix, without supplementation (Thermo Fisher Scientific, cat. 11765054), 100 U/mL penicillin-streptomycin (Thermo Fisher Scientific, cat. 15140122), and 2.5% Matrigel (Corning Inc., Corning, NY, cat. 354248) for the first three passages. The two PDC lines 997537-175-T-J1-PDC and 415267-285-R-J2-PDC were cultured on uncoated flasks. The 857933-349-R-J2-PDC line was cultured in 6C/Colon 1B media containing advanced DMEM/F-12 (Thermo Fisher Scientific, cat. 12634028), 10 mM HEPES (Thermo Fisher Scientific, cat. 15630080), 1X GlutaMAX supplement (Thermo Fisher Scientific, cat. 35050061), 0.1 mg/mL primocin (InvivoGen, San Diego, CA, cat. ant-pm-2), 10% defined fetal bovine serum, heat inactivated (HyClone Laboratories Inc., Logan, UT, cat. SH30070.03HI), 50% L-WRN conditioned media (ATCC, cat. CRL-3276), 1.25 mM N-Acetyl-L-cysteine (Sigma-Aldrich, cat. A9165), 10 mM nicotinamide (Sigma-Aldrich, cat. N0636), 1X B-27 supplement (Thermo Fisher Scientific, cat. 17504044), 1X N-2 supplement (Thermo Fisher Scientific, cat. […]",
  "note": "Where “and” joins values, the source holds several entries; their conditions need not be identical. Equal entries are not always repeated.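 Also: spheroids exposed to drugs for 7 days.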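 For viability, T/C in this document: 100% = DMSO vehicle treated spheroids.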",
  "data": [
    {"molecule": "CCCS(=O)(=O)Nc1ccc(F)c(C(=O)c2c[nH]c3ncc(-c4ccc(Cl)cc4)cc23)c1F", "values": [
      {"measurement": "viability, T/C", "setting": "compound 0.0316 µM", "result": "77.1% and 111% and 98.1%"},
      {"measurement": "viability, T/C", "setting": "compound 0.1 µM", "result": "88.1% and 101% and 79.8%"},
      {"measurement": "viability, T/C", "setting": "compound 0.316 µM", "result": "101% and 93.3% and 103%"},
      {"measurement": "viability, T/C", "setting": "compound 1 µM", "result": "123% and 91.3% and 106%"},
      {"measurement": "viability, T/C", "setting": "compound 3.16 µM", "result": "93.8% and 70.6% and 69.6%"},
      {"measurement": "viability, T/C", "setting": "compound 10 µM", "result": "15.7% and 25% and 19.7%"},
      {"measurement": "IC50", "setting": "curve of compound", "result": "6.05 µM and 5.24 µM and 4.97 µM"}
    ]},
    {"molecule": "COc1cc2cc(C(=O)CCC(=O)O)sc2cc1OC", "note": "+ Cc1cccc(N(C)C(=O)C2C(O)CCN2c2nc(C)cc(C(F)(F)F)c2C#N)c1", "values": [
      {"measurement": "IC50", "setting": "curve of first compound, second compound 0.0316 µM", "result": "> 10", "unit": "µM"},
      {"measurement": "IC50", "setting": "curve of first compound, second compound 0.1 µM", "result": "> 10", "unit": "µM"},
      {"measurement": "IC50", "setting": "curve of first compound, second compound 0.316 µM", "result": "> 10", "unit": "µM"},
      {"measurement": "IC50", "setting": "curve of first compound, second compound 1 µM", "result": "> 10", "unit": "µM"},
      {"measurement": "IC50", "setting": "curve of first compound, second compound 3.16 µM", "result": "> 10", "unit": "µM"},
      {"measurement": "IC50", "setting": "curve of first compound, second compound 10 µM", "result": "> 10", "unit": "µM"},
      {"measurement": "viability, T/C", "setting": "second compound 0.0316 µM, first compound 0.0316 µM", "result": 79.5, "unit": "%"},
      {"measurement": "viability, T/C", "setting": "second compound 0.0316 µM, first compound 0.1 µM", "result": 96.4, "unit": "%"},
      {"measurement": "viability, T/C", "setting": "second compound 0.0316 µM, first compound 0.316 µM", "result": 130, "unit": "%"},
      {"measurement": "viability, T/C", "setting": "second compound 0.0316 µM, first compound 1 µM", "result": 74.9, "unit": "%"},
      {"measurement": "viability, T/C", "setting": "second compound 0.0316 µM, first compound 3.16 µM", "result": 91, "unit": "%"},
      {"measurement": "viability, T/C", "setting": "second compound 0.0316 µM, first compound 10 µM", "result": 82.3, "unit": "%"},
      {"measurement": "viability, T/C", "setting": "second compound 0.1 µM, first compound 0.0316 µM", "result": 116, "unit": "%"},
      {"measurement": "viability, T/C", "setting": "second compound 0.1 µM, first compound 0.1 µM", "result": 91.4, "unit": "%"},
      {"measurement": "viability, T/C", "setting": "second compound 0.1 µM, first compound 0.316 µM", "result": 102, "unit": "%"},
      {"measurement": "viability, T/C", "setting": "second compound 0.1 µM, first compound 1 µM", "result": 88.5, "unit": "%"},
      {"measurement": "viability, T/C", "setting": "second compound 0.1 µM, first compound 3.16 µM", "result": 98.8, "unit": "%"},
      {"measurement": "viability, T/C", "setting": "second compound 0.1 µM, first compound 10 µM", "result": 92.8, "unit": "%"},
      {"measurement": "viability, T/C", "setting": "second compound 0.316 µM, first compound 0.0316 µM", "result": 67.7, "unit": "%"},
      {"measurement": "viability, T/C", "setting": "second compound 0.316 µM, first compound 0.1 µM", "result": 96.1, "unit": "%"},
      {"measurement": "viability, T/C", "setting": "second compound 0.316 µM, first compound 0.316 µM", "result": 70.5, "unit": "%"},
      {"measurement": "viability, T/C", "setting": "second compound 0.316 µM, first compound 1 µM", "result": 88.2, "unit": "%"},
      {"measurement": "viability, T/C", "setting": "second compound 0.316 µM, first compound 3.16 µM", "result": 79.7, "unit": "%"},
      {"measurement": "viability, T/C", "setting": "second compound 0.316 µM, first compound 10 µM", "result": 84.3, "unit": "%"},
      {"measurement": "viability, T/C", "setting": "second compound 1 µM, first compound 0.0316 µM", "result": 67.6, "unit": "%"},
      {"measurement": "viability, T/C", "setting": "second compound 1 µM, first compound 0.1 µM", "result": 86.9, "unit": "%"},
      {"measurement": "viability, T/C", "setting": "second compound 1 µM, first compound 0.316 µM", "result": 72.9, "unit": "%"},
      {"measurement": "viability, T/C", "setting": "second compound 1 µM, first compound 1 µM", "result": 103, "unit": "%"},
      {"measurement": "viability, T/C", "setting": "second compound 1 µM, first compound 3.16 µM", "result": 72.3, "unit": "%"},
      {"measurement": "viability, T/C", "setting": "second compound 1 µM, first compound 10 µM", "result": 80.9, "unit": "%"},
      {"measurement": "viability, T/C", "setting": "second compound 3.16 µM, first compound 0.0316 µM", "result": 120, "unit": "%"},
      {"measurement": "viability, T/C", "setting": "second compound 3.16 µM, first compound 0.1 µM", "result": 93.4, "unit": "%"},
      {"measurement": "viability, T/C", "setting": "second compound 3.16 µM, first compound 0.316 µM", "result": 101, "unit": "%"},
      {"measurement": "viability, T/C", "setting": "second compound 3.16 µM, first compound 1 µM", "result": 94.4, "unit": "%"},
      {"measurement": "viability, T/C", "setting": "second compound 3.16 µM, first compound 3.16 µM", "result": 110, "unit": "%"},
      {"measurement": "viability, T/C", "setting": "second compound 3.16 µM, first compound 10 µM", "result": 94.1, "unit": "%"},
      {"measurement": "viability, T/C", "setting": "second compound 10 µM, first compound 0.0316 µM", "result": 97.6, "unit": "%"},
      {"measurement": "viability, T/C", "setting": "second compound 10 µM, first compound 0.1 µM", "result": 94.4, "unit": "%"},
      {"measurement": "viability, T/C", "setting": "second compound 10 µM, first compound 0.316 µM", "result": 92.9, "unit": "%"},
      {"measurement": "viability, T/C", "setting": "second compound 10 µM, first compound 1 µM", "result": 86.3, "unit": "%"},
      {"measurement": "viability, T/C", "setting": "second compound 10 µM, first compound 3.16 µM", "result": 87.8, "unit": "%"},
      {"measurement": "viability, T/C", "setting": "second compound 10 µM, first compound 10 µM", "result": 76.7, "unit": "%"}
    ]},
    {"molecule": "CNCc1ccc(-c2[nH]c3cc(F)cc4c3c2CCNC4=O)cc1", "values": [
      {"measurement": "viability, T/C", "setting": "compound 0.0316 µM", "result": "90.6% and 92.2% and 105%"},
      {"measurement": "viability, T/C", "setting": "compound 0.1 µM", "result": "111% and 79.6% and 87%"},
      {"measurement": "viability, T/C", "setting": "compound 0.316 µM", "result": "112% and 90% and 90.3%"},
      {"measurement": "viability, T/C", "setting": "compound 1 µM", "result": "107% and 83.3% and 103%"},
      {"measurement": "viability, T/C", "setting": "compound 3.16 µM", "result": "110% and 98.3% and 105%"},
      {"measurement": "viability, T/C", "setting": "compound 10 µM", "result": "93.4% and 76.8% and 66.9%"},
      {"measurement": "IC50", "setting": "curve of compound", "result": "> 10", "unit": "µM"}
    ]}
  ]
}
